Consider eleven molecules from patent publication US20160186068A1, “METHODS AND SYSTEMS FOR PROCESSING CELLULOSIC BIOMASS” (SHELL OIL COMPANY, priority 2014, published 2016).

Data set [1] in a line: Toluene extraction of reactor product: partitioning between upper organic and lower aqueous phases (Example 2). The conditions noted are these: for Kow UL/LL, partition coefficients for toluene extraction: toluene extractant, stirred at 150° C. for 2 hours, upper toluene-rich phase / lower aqueous-rich phase. The protocol:
(§1) The injector temperature was set at 250° C., and the detector temperature was set at 300° C.
Reaction cycles entailed 1 hour at 160° C., followed by 1 hour at 190° C., followed by 3 hours at 240° C. Six cycles of wood addition were effected, which simulated the first hydrothermal reaction. This was followed by heating overnight at 270° C. under 52 bar of H2, which simulated the second hydrothermal reaction to further hydrotreat and complete conversion of various compounds in the first reaction product, which the examples may refer to as intermediates.
Stirring was then stopped, and the reactor allowed to cool. […] Catalyst was left on the reactor bottom.

Data set [2] can be described thus: MIBC extraction of reactor product: partition between upper MIBC-rich organic layer and lower aqueous layer (Example 3). The protocol: as §1
Partition coefficients for the concentration by weigh in the upper MIBC-rich organic layer, vs. the lower aqueous layer, are reported in Table 2.

Data set [3] in a line: Solubility of MPP in deionized water (Example 5E solution). The class given is physicochemical. Particulars: 1 wt % solution, room temperature, judged by turbidity.
A short description of data set [4]: Extraction of phenols from 1% aqueous solution with toluene or heptane (Examples 5E-5H).
The nature of data set [5]: Comparison of extraction solvents on simulated reaction product mixture (Examples 5A-5D). Particulars: for Kow: one part by weight, 2 weight percent each component in water, 25° C.
Experimental: The reaction product mixture was extracted with one part of by weight solvent, with mixing for a minimum of three minutes, followed by phase separation overnight at 25° C.
The nature of data set [6]: MIBC re-extraction (step #2) of aqueous lower layer from initial MIBC extraction (Example 4). Type of data set: physicochemical. Particulars: for Extr #2 % extract / Extr #2 K UL/LL: MIBC re-extraction (step #2); for Extr #2 LL-wt %: lower layer after MIBC re-extraction (step #2); for Extr #2 LL-wt % / Extr #2 K UL/LL: one part MIBC by weight, 25° C.; for extraction from aqueous lower layer by MIBC (in words): MIBC re-extraction, GC results.

Test in data set [7]: as above
Type of data set: physicochemical. Particulars: for Extr #1 K UL/LL: initial (step #1) MIBC extraction; for Extr #1 LL-wt %: lower aqueous layer after initial (step #1) MIBC extraction. The protocol: One part of the upper organic-rich upper layer from Example 3 was removed prior to distillation, extracted with one part by weight of MIBC solvent, by shaking for 3 minutes in a vial via mechanical shaker, followed by allowing to phase separate overnight at 25° C.
Extraction efficiency as measured by the partition coefficient K increased with increasing carbon number for the light alcohol. Glycols, including ethylene glycol (EG) and propylene glycol (PG) were not extracted.

[8] abbreviates: concentration by weight in upper MIBC-rich organic layer vs. lower aqueous layer.
Where [9] appears, read: Example 5F, 1% MPP in water extracted with heptane.
[10] abbreviates: Example 5B, MPP as extraction solvent.
[11] abbreviates: Example 5C, MPP/MIBC extraction solvent.
Where [12] appears, read: Ex 5A, toluene extraction solvent.
Setting [13] is: Ex 5C, 1:1 MPP/MIBC extraction solvent.
The mark [14] stands for this setting: Ex 5D, meta-cresol extraction solvent.
Setting [15] is: Example 5G, 1% solution of m-cresol extracted with toluene.
The mark [16] stands for this setting: Example 5D, m-cresol as extraction solvent.

Where two headings read alike, the source gives them in different places.

`CCCc1ccc(O)c(OC)c1` [MPP, 2-methoxy-4-propylphenol]: in data set [1], the “Kow UL/LL, partition coefficients for toluene extraction” value turned out to be 33.59. Besides, the “MIBC extraction partition coefficient” value in data set [2] (setting [8]) is on record as over 50. Besides, the “solubility in deionized water” value in data set [3] is “only partial solubility”. For the same molecule, in data set [4] (Example 5E, 1 wt % MPP in deionized water extracted with one part toluene), the “partition coefficient, weight percent in organic layer extract vs. remaining lower layer aqueous fraction” value amounted to 161.7. In data set [4] (Example 5E, MPP as a 1% solution, toluene as solvent), the “recovered by extraction from the aqueous phase” value is listed as “More than 99%”. Moreover, in data set [4] (setting [9]), the apparent partition coefficient is on record as 76 and the “removed down to (residual in water)” value is given as 0.08 wt %. Further, in data set [5] (setting [10]), the “amount lost to the aqueous phase” value was 0.15 wt %; the “apparent partition coefficient between organic and aqueous layers” value was 612. For the same molecule, in data set [5] (setting [11]), the “extractant lost to the aqueous phase” value was 0.12 wt %, the “measured in the final organic extract” value is 55 wt % and the oil/water partition coefficient is on record as 462.

With `CC(C)CC(C)O` (centres unmarked) [MIBC, methylisobutylcarbinol], the “MIBC extraction partition coefficient” value in data set [2] worked out at 48.12. For the same molecule, in data set [5] (setting [11]), the “co-solvent lost to aqueous” value was 1%.

On to `CCO` [EtOH, ethanol], for which, in data set [6], the “Extr #2 % extract” value is reported as 39% and the “Extr #2 LL-wt %” value was 0.16 wt %.

On to `Cc1cccc(C)c1O` [xylenol, 2,6-xylenol], for which the “collected in the upper layer (toluene phase) distillation, relative to the bottom phase distillation” value in data set [1] (after toluene extraction, separate distillation of phases) is 99.5%. Moreover, the “Kow UL/LL, partition coefficients for toluene extraction” value in data set [1] was 51.79. Besides, the “MIBC extraction partition coefficient” value in data set [2] (setting [8]) came out at 87.26.

Take `OCCO` [EG, ethylene glycol]: in data set [7], the “Extr #1 K UL/LL” value is 0.37 and the “Extr #1 LL-wt %” value turned out to be 0.20 wt %. Moreover, in data set [6], the “Extr #2 % extract” value is on record as −43%, the “Extr #2 K UL/LL” value is on record as 0.045, the “extraction from aqueous lower layer by MIBC (in words)” value is listed as “not extracted” and the “Extr #2 LL-wt %” value was 0.29 wt %. In data set [5] (setting [12]), the Kow is 0.000. Besides, the Kow in data set [5] (Ex 5B, MPP extraction solvent) is on record as 0.037. For the same molecule, the Kow in data set [5] (setting [13]) is on record as 0.079. Also, the Kow in data set [5] (setting [14]) is reported as 0.036.

For the molecule `CC(O)CO` (centres unmarked) [PG, 1,2-propylene glycol], in data set [2], the “MIBC extraction partition coefficient” value stood at 0.33. Besides, in data set [7], the “Extr #1 K UL/LL” value amounted to 0.33 and the “Extr #1 LL-wt %” value is recorded as 0.38 wt %. For the same molecule, in data set [6], the “Extr #2 % extract” value is on record as −30%, the “Extr #2 K UL/LL” value is reported as 0.294, the “extraction from aqueous lower layer by MIBC (in words)” value is recorded as “not extracted” and the “Extr #2 LL-wt %” value is reported as 0.49 wt %. Also, the Kow in data set [5] (setting [12]) is recorded as 0.013. Also, the Kow in data set [5] (Ex 5B, MPP extraction solvent) was 0.084. The Kow in data set [5] (setting [13]) is given as 0.042. The Kow in data set [5] (setting [14]) was 0.197.

As for `CO` [MeOH, Methanol], in data set [2] (setting [8]), the “MIBC extraction partition coefficient” value is 0.30. The “Extr #1 LL-wt %” value in data set [7] is 0.18 wt %. Besides, in data set [6], the “Extr #2 % extract” value was found to be 16% and the “Extr #2 LL-wt %” value is recorded as 0.15 wt %.

`Cc1cccc(O)c1` [cresol, meta-cresol]: in data set [4] (setting [15]), the “apparent partition coefficient between organic and aqueous phases” value was 20.8; the “residual left in the aqueous layer” value turned out to be 0.05 wt %. In data set [4] (Example 5H, 1% m-cresol solution extracted with heptane), the “remained with the aqueous layer” value came out at 0.56 wt %. Further, in data set [5] (setting [16]), the “apparent partition coefficient between oil and water” value is 39; the “lost to the aqueous layer” value is reported as 2.7 wt %.

As to 1-propanol [PrOH], in data set [6], the “Extr #2 % extract” value was 71%, the “Extr #2 K UL/LL” value is listed as 1.429 and the “Extr #2 LL-wt %” value is given as 0.10 wt %.

For `CCCCCCC` [heptane], in data set [4] (Example 5F, heptane extraction), the “extraction solvent lost to the aqueous phase” value came out at 0.07 wt %. For the same molecule, the “extraction solvent lost to the aqueous layer” value in data set [4] (Example 5H, heptane extraction) is 0.015%.

Consider `Cc1ccccc1` [toluene], for which the “extraction solvent lost to the aqueous phase” value in data set [4] (Example 5G, toluene extraction) came out at 0.04 wt %. For the same molecule, the “loss of toluene extraction solvent” value in data set [4] (toluene extraction, lost to the lower layer) is reported as “less than 1%”.
